Row | SMILES | melting point [°C]
1 | CCC(=O)C(=O)Nc1c(C)c(C)c2c(c1C)C(c1ccc(C(C)C)cc1)CO2 (centres undefined) | 97 to 98
2 | OC(CCCN1CC=C(c2ccc(Cl)cc2)CC1)c1ccc(Cc2ccc(Cl)cc2)cc1 (centres undefined) | 104 to 105
3 | CCN1CCc2cc(Nc3ncc(Cl)c(Nc4ccccc4C(=O)NC)n3)c(OC)cc2CC1 | 195 to 211
4 | O=C1C(c2ccc(O)cc2)=C(Br)c2c(O)cc(O)cc21 | 160 to 162
5 | COc1ccc(OCc2c(C)cncc2C)c2[nH]c(C3CC3)nc12 | 152 to 155
6 | COc1cc2c(cc1-c1cc(F)ccc1F)NC(=O)CC(c1cccc(C#N)c1)=N2 | 251
7 | Cc1nc(-c2ccccc2)c(C)c(O)c1C(=O)Nc1nccs1 | 266
8 | COc1ccccc1NC(=O)Nc1nc(Nc2ccc(CC(=O)O)cc2)nc(Oc2ccc3ccccc3c2)n1 | 232 to 240
9 | COc1ccc(/C=C(\C#N)c2ccsc2)cc1OC1CCCC1 | 83 to 84
10 | N#CC1(c2ccc(C(F)(F)F)cc2)C2CC3CC(C2)CC1C3 (centres undefined) | 122 to 124
11 | CN1C(=O)CCC2(C)c3ccc(CSc4ccccc4)cc3CCC12 (centres undefined) | 144 to 146
12 | Cc1oc(-c2ccccc2)nc1COc1ccc(CON=C(CCCCC(=O)NS(C)(=O)=O)c2ccccc2)cc1 | 130 to 132
13 | COc1ccc(-n2nc(Sc3ccccc3)c(C)c(C#N)c2=O)cc1 | 179 to 180
14 | CCC1CC(=O)N(Cc2cccc(C(=O)NC3CCCC3)c2)N=C1c1ccc(OC)c(OC2CCCC2)c1 (centres undefined) | 153
15 | CCCCCCCCCC(=O)Nc1ccc2c(c1)C(=O)N(CCN1CCC(c3noc4cc(F)ccc34)CC1)C2=O | 159 to 160
16 | N#CC1C(c2ccccc2)N1C(=O)NC(=O)CCl (centres undefined) | 153 to 158
17 | N#Cc1c(N2CCCCC2)cc(-c2ccccc2)c2c1Cc1ccccc1-2 | 140 to 141
18 | O=C(C1CCCCC1CO)N1CCCC1 (centres undefined) | 115
19 | CCOCc1nc2c(N)nc3cc(Br)ccc3c2n1CC1(O)CCCC1 | 128 to 130
20 | CC(=O)N1CCC2(CC1)Cn1cc([N+](=O)[O-])nc1O2 | 232 to 234
21 | CC(C)Cn1c(CNC(=O)OC(C)(C)C)c(-c2ccc(F)cc2)c2cc(O)ccc2c1=O | 229 to 230
22 | CC1CCc2c3c(cc4ccccc24)C(=O)C(C(=O)O)CN31 (centres undefined) | 270 to 273
23 | CCCc1nnc2n1-c1sc(CC)cc1C(c1ccccc1Cl)=NC2NC(=O)c1ccc2ccccc2c1 (centres undefined) | 226 to 227

Row | SMILES | melting point [°C]
24 | O=C(OCC1OC(n2cc(F)c(=O)[nH]c2=O)C(OC(=O)c2ccccc2)C1OC(=O)c1ccccc1)c1ccccc1 (centres undefined) | 208 to 209
25 | c1ccc(CN2CCN(c3n[nH]c4c3CCc3ccccc3-4)CC2)cc1 | 254 to 256
26 | COc1cc(Nc2nccc(-c3cccc(OCCCN4C(=O)c5ccccc5C4=O)c3)n2)cc(OC)c1OC | 209
27 | COc1cc(OCC(F)(F)C(F)F)nc(Oc2cc(C(F)(F)F)nn2C)c1 | 73 to 74
28 | Cc1c(NC(=O)c2ccc(OC[C@@H]3CCCO3)cc2)ccc2cc(CNC3CCC3)cnc12 | 142 to 144
29 | OC1(c2ccc(C(F)(F)F)cc2)CCN(Cc2ccccc2)CC1 | 115 to 117
30 | CC(=O)OCC(=O)C1(O)CCC2C3CC=C4C=C(OC(C)=O)C=CC4(C)C34OC4CC21C (centres undefined) | 194
31 | CCOC(=O)c1cnc2c(c(C)nc3cc(C)nn32)c1NCCCN(C)C | 73 to 75
32 | COc1cc(O)cc2nc(-c3ccc(O)cc3)oc12 | 225 to 228
33 | CCN1CCCC1CNC(=O)c1cc(N(C)S(=O)(=O)CC)ccc1OC (centres undefined) | 85 to 87
34 | CCOCc1nc2c(N)nc3cccnc3c2n1CCCCCC(=O)N1CCOCC1 | 168 to 170
35 | CC(C)S(=O)(=O)c1cnc2c(c1)nc(CC(C)(C)C)n2CC1CCOCC1 | 201
36 | CC(C)=CCOC(C)C1CCC2=C3C=CC4C(C)(C)C(O)CCC4(C)C3CCC21C (centres undefined) | 171 to 174
37 | Cc1ccc2sc(-c3ccccc3)c(N(C)C)c2c1 | 89 to 92
38 | Cn1ccc(C(=O)c2ccc(Cc3ccc(F)cc3)o2)c(O)c1=O | 145 to 147
39 | Cc1ccc(-n2ncc(C(=O)O)c2C)cc1 | 203
40 | CCc1nc(-c2ccc(OCCC3CCN(c4ccc(C)nn4)CC3)cc2)co1 | 124
41 | O=CN1CCN(C2=C(Cl)C(=O)c3nsnc3C2=O)CC1 | 191 to 194
42 | CC(=O)Oc1c(C)cc(C=CC(=O)Nc2cnc3c(C)cc(C)cc3c2-c2ccccc2Cl)c(C)c1C | 233 to 234
43 | O=C1c2ccccc2C(=O)N1CCN1CCN(C(c2ccccc2)c2ccccn2)CC1 (centres undefined) | 114 to 117
44 | Cc1nc(N2CCc3ccccc3CC2)c(C#N)c(=O)n1OC(C)C | 127 to 128
45 | CC1(CO)CCN(c2ccc(C#N)c3ccccc23)CC1 | 136 to 137
46 | Cc1c(Br)c(C)c2c(OS(=O)(=O)C(F)(F)F)coc2c1C | 54 to 55

Row | SMILES | melting point [°C]
47 | Cc1nc2c3c(c(CO)cc2n1C)CCC1(Cc2ccccc2C1)N3 | 272 to 274
48 | CS(=O)(=O)c1ccc2ccc(C(=O)O)cc2c1 | 273 to 274
49 | COC(=O)c1nc(Br)c(F)c(NC(C)=O)c1Cl | 190 to 192
50 | C#CCn1nnc2cc3c(=O)n(C(C)Cn4ncnn4)nnc3cc2c1=O (centres undefined) | 209 to 211
51 | CN1c2c(oc(=O)n(-c3ncccn3)c2=O)-c2ccccc2S1(=O)=O | 282 to 284
52 | CC(C#N)(CCc1ccccc1C(F)(F)F)NC(=O)c1ccc(OC(F)(F)F)cc1 (centres undefined) | 87 to 89
53 | CN(CCCN1c2ccccc2CCc2ccccc21)C(=O)c1cccnc1 | 84 to 86
54 | CCCCOc1ccc(S(=O)(=O)C2(C(=O)NO)CCN(Cc3ccccc3)CC2)cc1 | 144
55 | Cc1ccc(S(=O)(=O)n2cc(C[C@H]3CCCN3C)c3cc(Br)ccc32)cc1 | 98 to 104
56 | CCOc1ccccc1C(=O)Nc1ccc(C(=O)N2CCC(F)(F)/C(=C\C(=O)N3CCOCC3)c3ccccc32)cc1 | 144 to 147
57 | CC(=O)C=Cc1c(-c2ccccc2)nn2ccccc12 | 134 to 136
58 | Cc1nccn1CCCC1CCc2onc(-c3ccccc3)c2C1=O (centres undefined) | 97 to 99
59 | O=C(c1ccccc1)C(OCCN1CCCCC1)c1ccccc1 (centres undefined) | 53
60 | CC(=O)N1c2cc([N+](=O)[O-])ccc2[C@H]2Cc3ccc([N+](=O)[O-])cc3[C@H]21 (relative stereo) | 264 to 266
61 | COC(=O)C1Cc2c([nH]c3ccccc23)C(c2ccc(O)cc2)N1 (centres undefined) | 233 to 235
62 | COc1ccc(-c2nc(OCC(F)(F)F)nn2-c2ccc(OC)nc2)cc1 | 63 to 64
63 | COc1ccc(Sc2nn(-c3ccc(OC)cc3)c(=O)c(C#N)c2C)cc1 | 188 to 190
64 | CC1CCN(C)c2nc3[nH]c(=O)cc(C(F)(F)F)c3cc21 (centres undefined) | 225 to 230
65 | COC(=O)C(NS(=O)(=O)c1ccc(-c2ccc(NC(=O)c3oc4cccc(C(C)=O)c4c3C)cc2)cc1)C(C)C (centres undefined) | 197 to 199
66 | COc1cc(C)c(O)c(CCCCCCCCCCO)n1 | 80 to 81
67 | O=c1nc(-c2ccccc2)c2cc([N+](=O)[O-])ccc2n1Cc1ccccn1 | 175 to 176

Further lines, results first:

Row | melting point [°C] | SMILES
68 | 65 to 67 | COC(=O)C(C(=O)OC)[C@H]1C=Cc2ccccc2[C@H]1O (relative stereo)
69 | 260 to 264 | Nc1ncnc2nc(-c3cccc(Cl)c3)cnc12
70 | 194 to 196 | O=C(O)Cc1cn(C(=O)c2cccc(C(F)(F)F)c2)c2cc(Cl)ccc12
71 | 60 to 63 | COc1cc(CO)cnc1Cl
72 | 132 to 134 | COC(=O)c1ccc(-c2nc(-c3cccc(OC(F)(F)F)c3)cs2)cc1
73 | 164 | Nc1cc([N+](=O)[O-])c(N)cc1SCC(O)CO (centres undefined)
74 | 157 to 158 | CCN1c2ncc(CC(OC(C)=O)c3ccncc3)cc2C(=O)N(C)c2ccc(Cl)nc21 (centres undefined)
75 | 323 to 325 | CCCOc1cc(C)ccc1C1=NC(=O)C2=NC=NC2=N1
76 | 94 | O=[N+]([O-])c1cccc(OCc2ccccc2)c1Cl
77 | 95 to 100 | CC(CCc1cccc(OCCC(NC(=O)OCc2ccccc2)C(=O)O)c1)=NNC=NN (centres undefined)
78 | 105 to 106 | O=C(Nc1ccc(/C=C/CO)c(F)c1)OCc1ccccc1
79 | 126 to 129 | CCOc1ccc2nc(Sc3ccc([N+](=O)[O-])c(N)c3)sc2c1
80 | 165 to 166 | O=C1NCCc2c(OCC3CO3)cccc21 (centres undefined)
81 | 114 to 115 | CC(Cc1cccc(N)c1)(NC=O)c1ccccc1 (centres undefined)
82 | 55 to 58 | NCC(O)COc1cccc(Cl)c1 (centres undefined)
83 | 87 to 88 | CCOC(=O)C(CC=Cc1ccc(Cl)cc1)S(=O)(=O)c1ccc(C)cc1 (centres undefined)

Row | melting point [°C] | SMILES
84 | 104 to 106 | COc1cc(Cl)ccc1-c1ccc(C(C)=O)cc1[N+](=O)[O-]
85 | 127 to 138 | CC(=O)Nc1ccc(CCC(=O)O)cc1
86 | 276 to 278 | O=c1c2c(Cc3ccccc3Cl)n[nH]c2c2cccnc2n1-c1cccc(C(F)(F)F)c1
87 | 158 to 161 | Nc1ncc(CCN2CCN(c3ccccn3)CC2)s1
88 | 159 to 160 | Cc1cc(Cl)ccc1OCc1ccccc1C(O)c1nccn1C (centres undefined)
89 | 187 | CC(C)NCC(O)COc1ccc2c(=O)cc(-c3ccc(O)c(O)c3)oc2c1 (centres undefined)
90 | 120 to 125 | CCOC(=O)C1=Cc2cccc(C(N)=O)c2OCC1
91 | 148 to 149 | CCn1c2cc(C=O)ccc2c2c3ccccc3ccc21
92 | 124 to 126 | COc1ccc2c(c1)N(CCCCl)c1cccc(S(=O)(=O)N(C)C)c1S2
93 | 118 to 121 | CN(Cc1cc2c(=O)c(C(=O)NCc3ccc(Cl)cc3)cn(C)c2o1)CC(O)c1ccccc1 (centres undefined)
94 | 243 to 245 | CCOc1ccc(Nc2ncc(C(=O)O)c(=O)[nH]2)cc1OCC
95 | 172 to 173 | O=C(O)C=CC(=O)c1ccccc1O
96 | 113 to 116 | COc1cc(N)ccc1NNC=O
97 | 142 | O=C(NN1CCOCC1)C(CS)Cc1c(Cl)cccc1Cl (centres undefined)
98 | 122 | Cc1ccc(C(=O)CCC(=O)c2ccccc2)s1
99 | 143 to 144 | CC(O)=C(C#N)C(=O)Nc1ccc(Cl)cc1Cl
